Type in all cases: cell-based, human
In assay [1] the test system is A2780 cells. The experiment in a line: Mitochondrial ROS (MitoSOX, flow cytometry), A2780. As for the experimental part: Monitoring mitochondrial ROS (mROS)
A2780 cells were seeded in RPMI 1640 medium containing 5% FBS, 1% L-glutamine and 1% penicillin/streptomycin in a 96-well microtiter plate (total volume 0.1 mL) at a density of 250 cells/µL one day before the experiment. On the day of the experiment, the cells were washed with DPBS buffer and a fresh portion of RPMI 1640 medium containing 5% FBS, 1% L-glutamine and 1% penicillin/streptomycin (100 µL) was added followed by addition of compounds (1 μL of stock solutions in DMSO, final concentration of the prodrugs was 5, 10 μM and 30 μM) or carrier only (DMSO, 1 µL, final concentration 1 %, v/v) and incubation for 1 or 2 h in the dark chamber filled with CO 2 (5%) at 37 °C. After that, the cells were washed twice with DPBS buffer and the medium was replaced with HBSS (Hanks' Balanced Salt solution, 50 μL) containing MitoSOX (Red Mitochondrial Superoxide Indicator, Thermo-Fisher, Catalog number M36008, final concentration 5 µM obtained by adding 0.5 µ L of the 0.5 mM stock solution of MitoSOX in DMSO to the HBSS ) […]
(1 picture or pasted object on this page, not shown here) […]
and the cells were incubated in the dark chamber filled with CO2 (5%) at 37 °C for 20 min.
Next, the cells were detached from the culture dish using trypsin/EDTA (0.025%/0.01%, v/v, 50 µL). The cells were re-suspended in RPMI 1640 medium containing 5% FBS, 1% L-glutamine and 1% penicillin/streptomycin (100 µL). Finally, the fluorescence of live cells (λex = 488 nm, λem = 578 nm) in the suspensions was determined by using flow cytometry
A general note: In flow cytometry, cells or beads pass a laser one at a time.

Assay [2] has as its system SAS and FaDu cells. The experiment in a line: Semi-quantitative radiosensitization grade over SAS and FaDu. On the set-up: key: no radiosensitization (“-”); weak effect or effect in one cell line only (“+/−”); clear/strong (“+”) radiosensitization. The note with it: clonogenic survival with irradiation. As for the experimental part: (§1) defined low density (150-300 cells in 1 ml per well). After 8 h of incubation to allow cell adherence, 50% of the supernatant was exchanged by media containing the respective prodrugs at 2x concentration and exposed for 48 h. Treatment was then terminated by medium removal, and cells were allowed to grow for a period of ≥5-6 cell divisions estimated from the cell line-specific doubling times of the respective untreated controls (~7 days for SAS and ~10 days for FaDu cells). Control cells were always handled in parallel to the treated cells and thus exposed to the corresponding DMSO concentration(s). After the defined growth intervals, cells were fixed, stained and colonies of >50 cells were manually counted at low magnification to calculate plating efficiencies as the number of counted colonies relative to the number of seeded cells. Drug effect on clonogenic survival was then estimated by normalizing the colony formation of control cells to 1 (Table S9).
The colony formation assay was also applied for monitoring radioresponse. Here, increasing numbers of single cells relative to the irradiation dose (0-10 Gy) were seeded into 6-well plates (150-2400 SAS cells/well and 300-4800 FaDu cells/well).
Cells were treated with the drugs upon attachment as described. The total period of drug exposure was 48 h, and single dose irradiation was carried out 24 h after addition of the compounds. X-ray was performed at room temperature with a YxlonY.TU 320 system (Yxlon.international, 200 kV, 0.5 mm Cu filter) and a dose rate of ~1.3 Gy/min. Drug exposure was terminated by medium exchange and cultures were then incubated for the additional time period highlighted earlier.
Plating efficiencies were assessed and normalized for each treatment arm to the respective unirradiated control. Data were reproduced (N=3 each with n=3 wells per experiment and treatment condition). The relative clonogenic cell survival (= survival fraction, SF) was then plotted as function of the irradiation dose, and clonogenic survival curves were fitted employing the linear quadratic model as described

For assay [3], the system named is FaDu cells. The experiment in a line: Clonogenic assay (colony formation), FaDu. Particulars: for Relative clonogenic survival: 48 h exposure, untreated control = 1. The procedure: Optimization of concentration of prodrugs and controls / clonogenic assay The clonogenic survival assay is a classical approach to monitor radioresponse and drug- induced radiosensitization in cancer cells. We therefore initially determined whether the supposedly non -toxic drug concentrations defined for combinatorial treatment testing affect single cell colony formation capacity. For this pu rpose, exponentially growing SAS and FaDu cells were dissociated, single cell suspensions were prepared in standard DMEM and seeded in 6 -well plates at […]
as §1, with “S9). […]” for “S9).”

`CC1(C)OB(c2ccc(COC(=O)N(Cc3cccc(CN4CCCCC4)c3)[c-]3cccc3)cc2)OC1(C)C.[Fe+2].c1cc[cH-]c1` [5b]: in assay [1], the “mitochondrial ROS (mROS) vs non-treated cells” value is reported as “did not affect mROS”. Besides, the Radiosensitization entry in assay [2] (1 µM) and in assay [2] (2.5 µM) was “+” throughout. The Relative clonogenic survival turned out to be 0.71 ± 0.07 in assay [3] (0.5 µM), 0.75 ± 0.11 in assay [3] (1 µM) and 0.36 ± 0.10 in assay [3] (2.5 µM). In addition, in assay [3] (10-fold lower dose than 25 µM), the “colony formation reduced to” value worked out at 36 ± 10%.

Turning to `CCOC(=O)CCCCCn1cc(CN(C(=O)OCc2ccc(B3OC(C)(C)C(C)(C)O3)cc2)[c-]2cccc2)nn1.[Fe+2].c1cc[cH-]c1` [compound 1], the “mitochondrial ROS (mROS) vs non-treated cells” value in assay [1] is “substantially weaker”.

For the compound `CC1(C)OB(c2ccc(COC(=O)N(Cc3cn(Cc4ccc(Cn5cc(Cc6ccccc6)nn5)cc4)nn3)[c-]3cccc3)cc2)OC1(C)C.[Fe+2].c1cc[cH-]c1` [2c], the “mitochondrial ROS (mROS) vs non-treated cells” value in assay [1] is on record as “significantly increased”. The results for the Radiosensitization result in assay [2] (10 µM) and in assay [2] (25 µM) were “+/−” and “+”, respectively. Besides, the Relative clonogenic survival in assay [3] (10 µM) is 0.86 ± 0.13; in assay [3] (25 µM), 0.20 ± 0.08. In addition, the “growth of colonies reduced to” value in assay [3] (25 µM) was found to be 20 ± 8%.

As to `[Fe+2].c1cc[cH-]c1.c1cc[cH-]c1` [compound 6, ferrocene], the Radiosensitization result in assay [2] (25 µM) is given as “-”. In assay [3] (25 µM), this compound registered a Relative clonogenic survival of 0.99 ± 0.08.

For the origin of these results see publication PMC8750417, “Intracellular Amplifiers of Reactive Oxygen Species Affecting Mitochondria as Radiosensitizers” (Cancers, 2021).
